Experimental data as given in ChEMBL document CHEMBL1158544, “The evaluation of quinonoid compounds against Trypanosoma cruzi: synthesis of imidazolic anthraquinones, nor-beta-lapachone derivatives and beta-lapachone-based 1,2,3-triazoles” (Bioorg Med Chem, 2010).

Tests used:
Trypanosoma cruzi = test: Antitrypanosomal activity against Trypanosoma cruzi Y blood stream trypomastigotes after 24 hrs; assay type: functional, organism-based
PBMC = test: Cytotoxicity against human PBMC after 72 hrs by alamar blue assay; assay type: cell-based

| Compound | IC50 (Trypanosoma cruzi) [µM] | IC50 (PBMC) [µM] |
| --- | --- | --- |
| CC1(C)OC2=C(C(=O)C(=O)c3ccccc32)[C@H](N=[N+]=[N-])[C@H]1Br | 23.4 | 2.1 |
| CC1(C)OC2=C(C(=O)C(=O)c3ccccc32)[C@H](n2cc(-c3ccc(Br)cc3)nn2)[C@H]1Br | 440 | 2.1 |
| CC1(C)OC2=C(C(=O)C(=O)c3ccccc32)[C@H](n2cc(-c3ccc(F)cc3)nn2)[C@H]1Br | 220 | 2.1 |
| COc1ccc(-c2cn([C@H]3C4=C(OC(C)(C)[C@@H]3Br)c3ccccc3C(=O)C4=O)nn2)cc1 | 106 | 2.1 |
| CC(C)=CCC1=C(OC2(CC=C(C)C)C(=O)C(=O)c3ccccc3C2=O)C(=O)c2ccccc2C1=O (configuration not stated) | 233 | 12 |
| O=C1c2ccccc2C(=O)c2c1ccc1nc(-c3ccc(-c4ccccc4)cc3)[nH]c21 | > 4000 | 12 |
| O=C1c2ccccc2C(=O)c2c1ccc1nc(-c3cccc4ccccc34)[nH]c21 | > 4000 | 2.1 |
| CC1(C)OC2=C(C(=O)c3ccccc3C2=O)[C@@H](N=[N+]=[N-])[C@@H]1Br | 248 | 2.1 |
| CC1(C)OC2=C(C(=O)C(=O)c3ccccc32)C1Nc1ccc(Br)cc1Br (configuration not stated) | 24.9 | 2.1 |
| CC1(C)OC2=C(C(=O)C(=O)c3ccccc32)C1Nc1ccc(Cl)c(Cl)c1 (configuration not stated) | 43.8 | 2.1 |
| COc1ccc(NC2C3=C(OC2(C)C)c2ccccc2C(=O)C3=O)c([N+](=O)[O-])c1 (configuration not stated) | 59.6 | 2.1 |
| Cc1ccc([N+](=O)[O-])cc1NC1C2=C(OC1(C)C)c1ccccc1C(=O)C2=O (configuration not stated) | 284 | 12 |
| CC1(C)OC2=C(C(=O)C(=O)c3ccccc32)[C@H](n2cc(-c3ccccc3)nn2)[C@H]1Br | 313 | 2.1 |
| CC(C)=CC1=C(O)C(=O)c2ccccc2C1=O | – | 2.1 |
| CC1(C)OC2=C(C(=O)C(=O)c3ccccc32)C1OC1CCCCC1 (configuration not stated) | 558 | 2.1 |
| CC1(C)OC2=C(C(=O)C(=O)c3ccccc32)C1Nc1ccccc1[N+](=O)[O-] (configuration not stated) | 55.6 | 2.1 |
| Cc1cc([N+](=O)[O-])ccc1NC1C2=C(OC1(C)C)c1ccccc1C(=O)C2=O (configuration not stated) | 156 | 2.1 |
| CC(C)OC1C2=C(OC1(C)C)c1ccccc1C(=O)C2=O (configuration not stated) | 268 | 2.1 |
| CC(C)COC1C2=C(OC1(C)C)c1ccccc1C(=O)C2=O (configuration not stated) | 47.2 | 2.1 |
| CC1(C)OC2=C(C(=O)C(=O)c3ccccc32)C1Nc1ccc(F)c([N+](=O)[O-])c1 (configuration not stated) | 526 | – |
| O=C1c2ccccc2C(=O)c2c1ccc1nc(-c3ccccc3)[nH]c21 | > 2000 | 12 |
| Cc1ccc(-c2nc3ccc4c(c3[nH]2)C(=O)c2ccccc2C4=O)cc1 | > 4000 | 12 |
| CC(C)=CCC1=C(O)C(=O)c2ccccc2C1=O [LAPACHOL] | – | 2.1 |
| CC1(C)CCC2=C(O1)c1ccccc1C(=O)C2=O [LAPACHONE] | 392 | 2.1 |
| CC1(C)CC2=C(O1)c1ccccc1C(=O)C2=O [NOR-BETA-LAPACHONE] | > 4800 | 2.1 |
